In PubChem BioAssay (NCI) one finds GI50 and TGI data, which are given here for eight compounds.

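The compound was tested at five concentrations on cells cultured in 96-well plates, with a 48-hour exposure period. Abbreviation: GI50, concentration required for 50% inhibition of growth. TGI is the concentration that stops growth completely.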 A value given as a limit tells only on which side of the number the result lay.

Test systems include OVCAR-4 ovarian; MDA-MB-435; NCI-H226 lung; SK-OV-3 ovarian; MALME-3M melanoma; A549 NSCLC; IGROV1 ovarian; SNB-19 CNS; HL-60(TB) leukemia; CCRF-CEM leukemia.
Assay in all cases: NCI tumour cell line growth inhibition, 48 h

Turning to `O=C1/C(=C\c2ccc(F)cc2)CN(C(=O)c2ccccc2)C/C1=C\c1ccc(F)cc1`, the GI50 in the experiment on OVCAR-4 ovarian is 1.84 µM; with MDA-MB-435 it was 2.11 µM; with NCI-H226 lung it was 26.6 µM; in the experiment on SK-OV-3 ovarian it was 5.95 µM; in the experiment with MALME-3M melanoma it was 3.66 µM; with A549 NSCLC, 4.92 µM. Also, the GI50 in the experiment with IGROV1 ovarian is 3.33 µM; in the experiment on SNB-19 CNS, 5.05 µM; with HL-60(TB) leukemia, 3.56 µM; in the experiment with CCRF-CEM leukemia it was 1.05 µM. For the same compound, the TGI was 18.1 µM in the experiment with OVCAR-4 ovarian; 5.65 µM with MDA-MB-435; greater than 100 µM with NCI-H226 lung; 19.5 µM in the experiment with SK-OV-3 ovarian; 12.2 µM in the experiment on MALME-3M melanoma; 71.9 µM in the experiment on A549 NSCLC. Moreover, the TGI with IGROV1 ovarian is 10.7 µM; in the experiment on SNB-19 CNS, 20.8 µM; in the experiment with HL-60(TB) leukemia it was greater than 100 µM; with CCRF-CEM leukemia, greater than 100 µM.
As to `NS(=O)(=O)OCC1OC(n2cnc3cncnc32)C(O)C1O` (stereo unspecified), the GI50 was 0.0103 µM in the experiment with OVCAR-4 ovarian; 0.0284 µM with MDA-MB-435; 0.0344 µM with NCI-H226 lung; 0.0343 µM in the experiment on SK-OV-3 ovarian; 0.0469 µM in the experiment with MALME-3M melanoma; 0.0246 µM in the experiment with A549 NSCLC. Besides, the GI50 with IGROV1 ovarian is 0.0541 µM; with SNB-19 CNS, 0.0126 µM; in the experiment on HL-60(TB) leukemia, 0.0556 µM; in the experiment on CCRF-CEM leukemia it was 0.0389 µM. Besides, the TGI with OVCAR-4 ovarian turned out to be 0.0745 µM; in the experiment with MDA-MB-435, 0.0845 µM; in the experiment on NCI-H226 lung it was 0.222 µM; with SK-OV-3 ovarian, 0.137 µM; with MALME-3M melanoma, 0.272 µM; with A549 NSCLC, 0.115 µM. Moreover, the TGI with IGROV1 ovarian was 0.304 µM; with SNB-19 CNS, 0.0685 µM; in the experiment with CCRF-CEM leukemia, greater than 21.1 µM.
Regarding `CC(C)N1CC2CN(Cc3ccccc3)CC(C1)C2=O`, the TGI in the experiment on OVCAR-4 ovarian, in the experiment with MDA-MB-435, in the experiment with NCI-H226 lung, in the experiment on SK-OV-3 ovarian, with MALME-3M melanoma and in the experiment on A549 NSCLC was greater than 100 µM in each case. For the same compound, the TGI in the experiment with IGROV1 ovarian, with SNB-19 CNS, in the experiment with HL-60(TB) leukemia and with CCRF-CEM leukemia was greater than 100 µM each time.
For `COC1C(CO)OC(n2c3ccccc3c3c4c(c5c6ccccc6[nH]c5c32)C(=O)NC4=O)C(O)C1O` (stereo unspecified), the GI50 with OVCAR-4 ovarian was 0.342 µM; in the experiment with MDA-MB-435, 0.0633 µM; with NCI-H226 lung, 0.0113 µM; with SK-OV-3 ovarian, 0.0876 µM; with MALME-3M melanoma it was less than 0.018 µM; with A549 NSCLC, 0.621 µM. The GI50 in the experiment with IGROV1 ovarian was 0.0844 µM; in the experiment on SNB-19 CNS, 0.0277 µM; with HL-60(TB) leukemia, 0.0114 µM; in the experiment with CCRF-CEM leukemia, less than 0.01 µM. Besides, the TGI in the experiment with OVCAR-4 ovarian was determined as 17.7 µM; with MDA-MB-435, 0.901 µM; in the experiment on NCI-H226 lung, 0.108 µM; in the experiment on SK-OV-3 ovarian it was 2.22 µM; with IGROV1 ovarian it was 3.49 µM; in the experiment with SNB-19 CNS it was 6.64 µM. The figures for the TGI with HL-60(TB) leukemia and in the experiment with CCRF-CEM leukemia were 0.034 µM and 2.42 µM, respectively.
Consider `CN(C)c1ccc(/C=C/c2ccnc3c(O)cccc23)cc1`, for which the GI50 with OVCAR-4 ovarian is 0.404 µM; with MDA-MB-435 it was 0.455 µM; with NCI-H226 lung, 2.31 µM; in the experiment on SK-OV-3 ovarian it was 0.461 µM; in the experiment with MALME-3M melanoma it was 0.847 µM; in the experiment on A549 NSCLC, 0.376 µM. Further, the GI50 is 0.389 µM in the experiment with IGROV1 ovarian, 0.395 µM with SNB-19 CNS, 0.292 µM in the experiment on HL-60(TB) leukemia and 0.333 µM in the experiment with CCRF-CEM leukemia. Also, the TGI in the experiment on OVCAR-4 ovarian was greater than 100 µM; with MDA-MB-435, greater than 100 µM; in the experiment on NCI-H226 lung it was greater than 26.8 µM; in the experiment with SK-OV-3 ovarian, greater than 100 µM; with MALME-3M melanoma it was 9.43 µM; in the experiment on A549 NSCLC, greater than 100 µM. The TGI is greater than 100 µM in the experiment on IGROV1 ovarian, greater than 100 µM with SNB-19 CNS, 1.75 µM in the experiment on HL-60(TB) leukemia and greater than 100 µM with CCRF-CEM leukemia.
Turning to `Nc1c(C(=O)c2ccc(-c3cccnc3)cc2)cnn1-c1ccc(F)cc1`, the GI50 with OVCAR-4 ovarian is 8.41 µM; in the experiment on MDA-MB-435, greater than 25 µM; in the experiment on NCI-H226 lung, greater than 16.2 µM; in the experiment with SK-OV-3 ovarian it was greater than 14.2 µM; with MALME-3M melanoma it was 11 µM; with A549 NSCLC, greater than 14.4 µM. The GI50 in the experiment with IGROV1 ovarian was 24.3 µM; with SNB-19 CNS it was greater than 25 µM; in the experiment on HL-60(TB) leukemia, greater than 13.8 µM. Moreover, the TGI in the experiment with OVCAR-4 ovarian was greater than 24 µM; with MDA-MB-435, greater than 25 µM; with NCI-H226 lung, greater than 25 µM; with SK-OV-3 ovarian it was greater than 23 µM; with MALME-3M melanoma, greater than 20.3 µM; in the experiment with A549 NSCLC, greater than 25 µM. Moreover, the TGI in the experiment on IGROV1 ovarian, with SNB-19 CNS, in the experiment on HL-60(TB) leukemia and in the experiment with CCRF-CEM leukemia was greater than 25 µM in each case.
With `C=C(C)C1CC/C(C)=C/CCC2(C)OC2CC/C(CO)=C\C1O` (stereo unspecified), the TGI in the experiment on OVCAR-4 ovarian, with MDA-MB-435, with NCI-H226 lung, in the experiment with SK-OV-3 ovarian, in the experiment with MALME-3M melanoma and in the experiment on A549 NSCLC was greater than 100 µM each time. The TGI with IGROV1 ovarian, in the experiment with SNB-19 CNS, in the experiment on HL-60(TB) leukemia and in the experiment on CCRF-CEM leukemia was greater than 100 µM each time.
As for `Cc1ccc(Cl)cc1Nc1nc(C(F)(F)F)ccc1C(=O)N/N=C/c1cccnc1`, the GI50 with OVCAR-4 ovarian was 1.33 µM; with MDA-MB-435, 3.99 µM; in the experiment on NCI-H226 lung, 2.38 µM; in the experiment with SK-OV-3 ovarian, 3.31 µM; in the experiment on MALME-3M melanoma, 1.27 µM; in the experiment with A549 NSCLC, 3.32 µM. Moreover, the GI50 in the experiment with IGROV1 ovarian is 4.22 µM; in the experiment with SNB-19 CNS it was 3.37 µM; in the experiment with HL-60(TB) leukemia, 1.5 µM; with CCRF-CEM leukemia it was 4.14 µM. Moreover, the TGI in the experiment with OVCAR-4 ovarian was found to be 15.4 µM; in the experiment with MDA-MB-435 it was 15.7 µM; in the experiment with NCI-H226 lung, 12.4 µM; in the experiment on SK-OV-3 ovarian it was 15.9 µM; with MALME-3M melanoma, 8.27 µM; in the experiment with A549 NSCLC, 12.4 µM. Besides, the TGI with IGROV1 ovarian is 15.8 µM; in the experiment with SNB-19 CNS, 14.4 µM; in the experiment with HL-60(TB) leukemia it was greater than 46 µM; with CCRF-CEM leukemia, greater than 100 µM.
